From US12630557B2, “Salt and crystal form of pyrimidine compound, and preparation methods therefor” (Sichuan Kelun-Biotech Biopharmaceutical Co., Ltd., priority 2020, dated 2026)
In brackets after ≈: the same amount, converted by molar mass.

Columns and labels:
[1] = Solubility determination at different pH; format: physicochemical; settings: aqueous buffer
[2] = Stability experiment under conditions of influencing factors (high temperature / high humidity); format: physicochemical; settings: for HPLC purity: area normalized purity
From the text: Stability data of the crystal form A of the fumarate salt of the compound I under conditions of influencing factors is provided in Table 17 (HPLC purity is area normalized purity).

[3] = Dynamic water adsorption (DVS) experiment; format: physicochemical; settings: 25° C.
Description: Device information: SMS (Surface Measurement Systems) Intrinsic
Experimental method: temperature: 25° C.; protective gas N2; maximum equilibration time: 120 min; RH range: 0%-90%-0%.

[4] = target: T1, CCDC6-RET (Homo sapiens, UniProt P07949); test: HTRF KinEASE-TK RET enzyme inhibition; format: biochemical; settings: CCDC6-RET 0.3 nM, ATP 15 μM; read-out: Inhibitory IC50 on RET enzyme
T1 construct: the other entry of the earlier key: CCDC6 (Q16204, Coiled-coil domain-containing protein 6)
T1 sequence (P07949 with tags, fused parts or gaps): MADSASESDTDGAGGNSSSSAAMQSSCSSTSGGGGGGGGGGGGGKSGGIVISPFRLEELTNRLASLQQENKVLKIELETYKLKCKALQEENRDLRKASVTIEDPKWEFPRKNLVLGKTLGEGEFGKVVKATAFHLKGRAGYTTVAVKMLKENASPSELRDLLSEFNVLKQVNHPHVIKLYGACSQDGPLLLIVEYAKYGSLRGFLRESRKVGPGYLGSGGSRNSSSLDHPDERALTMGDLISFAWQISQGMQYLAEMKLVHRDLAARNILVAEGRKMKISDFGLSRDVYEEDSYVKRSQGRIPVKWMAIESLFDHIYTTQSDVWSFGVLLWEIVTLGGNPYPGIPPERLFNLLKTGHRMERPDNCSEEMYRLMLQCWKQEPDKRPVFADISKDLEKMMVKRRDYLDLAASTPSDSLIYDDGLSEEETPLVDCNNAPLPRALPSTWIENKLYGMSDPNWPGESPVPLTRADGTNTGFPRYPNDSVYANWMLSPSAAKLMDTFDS
Description: (§1) The inhibitory effects of the crystal form A of the fumarate salt of the compound I on the activity of wild-type RET, mutant-type RET (RET^V804M RET^V804L, and RET^M918T), and fusion-type RET (CCDC6-RET and KIF5B-RET) were determined using HTRF KinEASE-TK (Cisbio) kit.
(§2) After pre-incubation of the above different types of RET enzymes and different concentrations of the test compounds (9 concentration points) at room temperature for 30 min, a substrate and adenosine triphosphate (ATP) were added to initiate the reaction. After incubation at room temperature for 40 min, TK antibody-cryptate and streptavidin-XL665 were added, and after incubation at room temperature for 60 min, the detection was performed.
(§3) With the solvent group (DMSO) as the negative control and the buffer group (without RET enzyme) as the blank control, the relative inhibitory activity percentages of the compound at different concentrations were computed as per the following equation: Relative inhibitory activity percentage=1−(compound group of different concentrations-blank control)/(negative control-blank control)*100%
(§4) The relative inhibitory activity percentages of the compound at different concentrations were plotted with respect to the compound concentrations, and the curve was fitted in accordance with a four-parameter model to compute the IC50 value as per the following equation: y=min+(max−min)/(1+(x/IC50)^(−Hillslope)) • where y is the relative inhibitory activity percentage, max and min are a maximum value of the fitted curve, and a minimum value of the fitted curve respectively, x is a logarithmic concentration of the compound, and Hillslope is a slope of the curve.

[5] = target: RET^M918T (Homo sapiens, UniProt P07949, M918T); test: HTRF KinEASE-TK RET enzyme inhibition; format: biochemical; settings: RET^M918T 0.3 nM, ATP 15 μM; read-out: Inhibitory IC50 on RET enzyme
Description: as §1, §2, §3, §4

[6] = target: RET^V804L (Homo sapiens, UniProt P07949, V804L); test: HTRF KinEASE-TK RET enzyme inhibition; format: biochemical; settings: RET^V804L 0.6 nM, ATP 10 μM; read-out: Inhibitory IC50 on RET enzyme
Description: as §1, §2, §3, §4

[7] = target: RET^V804M (Homo sapiens, UniProt P07949, V804M); test: HTRF KinEASE-TK RET enzyme inhibition; format: biochemical; settings: RET^V804M 0.6 nM, ATP 15 μM; read-out: Inhibitory IC50 on RET enzyme
Description: as §1, §2, §3, §4

[8] = target: wild-type RET (Homo sapiens, UniProt P07949); test: HTRF KinEASE-TK RET enzyme inhibition; format: biochemical; settings: RET 0.2 nM, ATP 30 μM; read-out: Inhibitory IC50 on RET enzyme
Description: as §1, §2, §3, §4

[9] = Pharmacokinetic study in mice; format: in vivo; settings: female Balb/c mice, PO 1 mg/kg, plasma compound I
Description: Female Balb/c mice (6 mice) were orally administered with 1 mg/kg of the crystal form A of the fumarate salt of the compound I by gavage. The compound was first dissolved with 0.5% methylcellulose solution and ultrasonicated to ensure complete dissolution or uniform suspension of the compound. 30 min, 1 […], and 24 h after administration, 0.2 mL of blood (EDTA-K2 anticoagulated) was venously collected. The collected whole blood was temporarily stored in an ice box, and centrifuged for 10 min within 2 h to separate the plasma (4° C.). The collected plasma was stored in a refrigerator at -80° C. prior to testing. The blood concentration of the compound I was detected by LC-MS/MS, and the linear range was from 10 to 10000 ng/mL.

[10] = High humidity 25° C. ± 2° C./92.5% RH ± 5% RH, Day 30
[11] = High temperature 60° C. ± 2° C., Day 30

RET^M918T, sequence (P07949 29-1114 M918T): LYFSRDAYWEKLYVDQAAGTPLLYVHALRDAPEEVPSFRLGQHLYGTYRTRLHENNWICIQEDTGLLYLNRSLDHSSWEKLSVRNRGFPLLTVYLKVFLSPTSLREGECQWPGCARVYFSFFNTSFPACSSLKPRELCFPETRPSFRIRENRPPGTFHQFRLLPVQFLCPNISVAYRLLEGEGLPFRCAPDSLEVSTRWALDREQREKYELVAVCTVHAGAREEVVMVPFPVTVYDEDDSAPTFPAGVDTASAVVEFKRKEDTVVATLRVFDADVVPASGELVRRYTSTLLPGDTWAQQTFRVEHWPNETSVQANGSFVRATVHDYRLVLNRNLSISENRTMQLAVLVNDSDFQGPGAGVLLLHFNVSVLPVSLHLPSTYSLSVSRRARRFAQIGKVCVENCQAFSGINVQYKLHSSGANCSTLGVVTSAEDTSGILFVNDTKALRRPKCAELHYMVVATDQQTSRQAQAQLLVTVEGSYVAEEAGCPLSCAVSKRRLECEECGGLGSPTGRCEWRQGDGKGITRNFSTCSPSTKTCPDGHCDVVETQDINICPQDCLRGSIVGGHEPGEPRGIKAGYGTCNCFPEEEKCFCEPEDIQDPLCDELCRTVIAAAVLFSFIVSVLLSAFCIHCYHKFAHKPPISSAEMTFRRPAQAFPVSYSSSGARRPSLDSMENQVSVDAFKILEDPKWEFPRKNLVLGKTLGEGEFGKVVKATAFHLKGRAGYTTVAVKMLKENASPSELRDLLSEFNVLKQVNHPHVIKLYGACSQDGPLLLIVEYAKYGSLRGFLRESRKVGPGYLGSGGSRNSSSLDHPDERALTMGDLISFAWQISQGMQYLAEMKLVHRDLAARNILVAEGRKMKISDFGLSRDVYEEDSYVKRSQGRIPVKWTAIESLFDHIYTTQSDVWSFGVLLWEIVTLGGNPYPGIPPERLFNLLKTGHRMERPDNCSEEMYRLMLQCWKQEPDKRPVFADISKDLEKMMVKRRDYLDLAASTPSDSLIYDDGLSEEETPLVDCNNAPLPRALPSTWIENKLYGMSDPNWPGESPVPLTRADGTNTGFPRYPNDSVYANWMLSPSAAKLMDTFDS
RET^V804M, sequence (P07949 29-1114 V804M): as the sequence (P07949 29-1114 M918T) above, with V776M, T890M counted along it
wild-type RET, sequence (P07949 29-1114): as the sequence (P07949 29-1114 M918T) above, with T890M counted along it
RET^V804L, sequence (P07949 29-1114 V804L): as the sequence (P07949 29-1114 M918T) above, with V776L, T890M counted along it

Compound: Cc1cc(Nc2cc(C)[nH]n2)nc(-c2ccc(N3CC4CC(C3)N4Cc3ccc(-n4cc(F)cn4)nc3)nc2)n1
- solubility ([1]; Buffer pH 1.0): ≥ 12200 µg/mL
- solubility ([1]; Buffer pH 2.0): 3500 µg/mL (≈ 6.51 mM)
- solubility ([1]; Buffer pH 3.0): 2500 µg/mL (≈ 4.65 mM)
- Appearance ([2]; Day 0): White solid
- HPLC purity ([2]; Day 0): 99.6%
- Appearance [2, 10]: White solid
- Crystal form [2, 10]: form A
- HPLC purity [2, 10]: 99.5%
- Appearance [2, 11]: White solid
- Crystal form [2, 11]: form A
- HPLC purity [2, 11]: 99.3%
- crystal form before and after the DVS test ([3]; RH range 0%-90%-0%): remained changed
- desorption of adsorbed water (DVS) ([3]; humidity decreased from 90% to 0%): fully desorbed
- water absorbed (DVS) ([3]; humidity increased to 90%): about 0.7%
- IC50 [4]: 2.48 ± 1 nM
- IC50 [5]: 2.23 ± 0.64 nM
- IC50 [6]: 1.59 ± 0.51 nM
- IC50 [7]: 0.6 ± 0.2 nM
- IC50 [8]: 0.56 ± 0.09 nM
- Cl [9]: 1.47 mL/min/kg
- Vd [9]: 0.356 L/kg
- AUC(0-inf) ([9]; mouse): 11400 ng·h/mL
- AUC(0-t) ([9]; mouse): 11400 ng·h/mL
- Cmax ([9]; mouse): 2060 ng/mL
- Tmax ([9]; mouse): 1 h
- half-life ([9]; mouse): 2.81 h
